{"source": "patent US8916604B2", "about": "“Compositions and methods for epigenetic modification of nucleic acid sequences” (Rutgers, The State University of New Jersey, priority 2011, dated 2014)", "key": {"[1]": {"details": "oral, 2 mg/kg/day; cited from earlier work"}, "DNMT3b": {"system": "DNMT3b", "experiment": "Western blot in TRAMP C1 cells", "format": "cell-based, mouse", "method": "(§1) The DIM used in the study contains approximately 98% of DIM purchased from Sigma-Aldrich t St. Louis, Mo., USA), TRAMP C1 cells (provided by Dr. Barbara Foster, Department of Pharmacology and Therapeutics, Roswell Park Cancer institute, Buffalo. NY), originally derived from TRAMP prostate tumor, were cultured in Dulbecco's Modified Eagle's Medium (Invitrogen Corp., Carlsbad, Calif. U.S.A.) supplemented with 10% (V/V) fetal bovine serum (FBS) (Invitrogen Corp., Grand Island, N.Y., U.S.A.), penicillin 100 U/ml, and streptomycin 100 μg/ml (Invitrogen Corp., Grand Island, N.Y., U.S.A.), Cells were maintained in a humidified incubator with 5% CO2 at 37° C. Cells were seeded in 10 cm plates for 24 h and then treated with 0.1% DMSO (control) or different concentrations of DIM in 1% FBS containing medium for 5 days. The medium was changed every 2 days (20), The TRAMP C1 cells or dorso-lateral prostate tissues collected from treated and control groups were pooled and homogenized with RIPA buffer (Cell Signaling Technology, Danvers, Mass., U.S.A.) and 10 μg/ml protease inhibitor cocktail (EMD Chemicals, Philadelphia, Pa., U.S.A.). Protein (20 μg) was loaded onto 4-15% SDS-PAGE (Bio-Rad Laboratories, Hercules, Calif., U.S.A.). After separation by SDS-PAGE, the protein was transferred onto nitrocellulose membrane (Millipore Corp., Billerica, Mass., U.S.A.), and then was blocked in 5% bovine serum albumin (BSA) (Fisher Scientific, Fair Law, J. U.S.A.) in tris buffer saline tween-20 (TBST) solution for 1 h. Membranes were probed using the different mono- or polyclonal-antibodies (1:1000) overnight at 4″C. Blots were washed with TBST solution for 15 min 4 times and incubated with the respective secondary antibodies for 1 hr. After washing min 4 times with TBST solution, the immunoreactive bands were determined by adding SuperSignal West Femto mix (1:1 mix of stable peroxide buffer and luminol/enhancer solution (Thermo Scientific, Rockford, Ill., U.S.A.) to detect immunoreactive bands. The bands were visualized and quantified by BioRad ChemiDoc XRS system (Hercules, Calif., U.S.A.). The primary antibodies used were β-actin, Nrf2, NQO1 (Santa Cruz Biotechnology, Santa Cruz, Calif., U.S.A.), HDAC1, HDAC2, HDAC3, HDAC4 (Cell Signaling Technology Inc., Danvers Mass., U.S.A.), HDAC8 (Proteintech Group Inc., Chicago, Ill., U.S.A.) and DNMT1, DNMT3a, DNMT3b (Imgenex, San Diego, Calif., U.S.A.). The secondary antibodies used were goat polyclonal IgG for β-actin and NQO1, rabbit polyclonal IgG for Nrf2, HDAC1, HDAC2, HDAC3, HDAC4 and HDAC8, and mouse polyclonal IgG for DNMT1, DNMT3a, DNMT3b (Santa Cruz Biotechnology, Santa Cruz, Calif., U.S.A.),"}, "HDAC2": {"system": "HDAC2", "experiment": "Western blot in TRAMP C1 cells", "format": "cell-based, mouse", "method": "as §1"}, "DNMT1": {"system": "DNMT1", "experiment": "Western blot in TRAMP C1 cells", "format": "cell-based, mouse", "method": "as §1"}, "NQO1 [2]": {"system": "NQO1", "experiment": "Western blot in TRAMP C1 cells", "format": "cell-based, mouse", "method": "as §1"}, "Nrf2 [3]": {"system": "Nrf2", "experiment": "Western blot in TRAMP C1 cells", "format": "cell-based, mouse", "method": "as §1"}, "HDAC3": {"system": "HDAC3", "experiment": "Western blot in TRAMP C1 cells", "format": "cell-based, mouse", "method": "as §1"}, "NQO1 [4]": {"system": "NQO1", "experiment": "Western blot of TRAMP dorso-lateral prostate tissues", "format": "in vivo, mouse", "details": "D-G1 and D-G2; undetectable in control", "method": "(§2) The TRAMP C1 cells or dorso-lateral prostate tissues collected from treated and control groups were pooled and homogenized with RIPA buffer (Cell Signaling Technology, Danvers, Mass., U.S.A.) and 10 μg/ml protease inhibitor cocktail (EMD Chemicals, Philadelphia, Pa., U.S.A.). Protein (20 μg) was loaded onto 4-15% SDS-PAGE (Bio-Rad Laboratories, Hercules, Calif., U.S.A.). After separation by SDS-PAGE, the protein was transferred onto nitrocellulose membrane (Millipore Corp., Billerica, Mass., U.S.A.), and then was blocked in 5% bovine serum albumin (BSA) (Fisher Scientific, Fair Law, J. U.S.A.) in tris buffer saline tween-20 (TBST) solution for 1 h. […] After washing min 4 times with TBST solution, the immunoreactive bands were determined by adding SuperSignal West Femto mix (1:1 mix of stable peroxide buffer and luminol/enhancer solution (Thermo Scientific, Rockford, Ill., U.S.A.) to detect immunoreactive bands. The bands were visualized and quantified by BioRad ChemiDoc XRS system (Hercules, Calif., U.S.A.). The primary antibodies used were β-actin, Nrf2, NQO1 (Santa Cruz Biotechnology, Santa Cruz, Calif., U.S.A.), HDAC1, HDAC2, HDAC3, HDAC4 (Cell Signaling Technology Inc., Danvers Mass., U.S.A.), HDAC8 (Proteintech Group Inc., Chicago, Ill., U.S.A.) and DNMT1, DNMT3a, DNMT3b (Imgenex, San Diego, Calif., U.S.A.). […]"}, "Nrf2 [5]": {"system": "Nrf2", "experiment": "Western blot of TRAMP dorso-lateral prostate tissues", "format": "in vivo, mouse", "details": "D-G1 and D-G2; undetectable in control", "method": "as §2"}}}
{"smiles": "c1ccc2c(Cc3c[nH]c4ccccc34)c[nH]c2c1", "note": "[DIM, 3,3′-diindolylmethane]", "values": [{"measurement": "tolerability", "setting": "[1]", "result": "well tolerated with no significant toxicity"}, {"measurement": "DNMT3b protein level", "setting": "DNMT3b", "result": "suppressed"}, {"measurement": "HDAC2 protein expression", "setting": "HDAC2", "result": "suppress"}, {"measurement": "DNMT1 protein level", "setting": "DNMT1", "result": "suppressed"}, {"measurement": "NQO1 protein levels", "setting": "NQO1 [2]", "result": "significantly induced"}, {"measurement": "Nrf2 protein levels", "setting": "Nrf2 [3]", "result": "significantly induced"}, {"measurement": "HDAC3 protein expression", "setting": "HDAC3", "result": "suppress"}, {"measurement": "NQO1 protein expression", "setting": "NQO1 [4]", "result": "induced"}, {"measurement": "Nrf2 protein expression", "setting": "Nrf2 [5]", "result": "induced"}]}
